We go through 7 compounds from EP4467141A1, “PYRAZOLO-QUINOLINES AS SELECTIVE INHIBITORS OF GENOTOXIC STRESS-INDUCED IKK/NF- KB PATHWAYS FOR CANCER THERAPY” (Max-Delbrück-Centrum für Molekulare Medizin in der …, priority 2023, dated 2024).

Each structure is given as a SMILES string. Where two headings read alike, the source gives them in different places.

Common to all, as to assay: Kinase panel study
Holding throughout (format): biochemical

One assay deals with T1, PI4K2A (PI4K2 alpha) (Homo sapiens, UniProt Q9BTU6).
T1 construct: purchased Thermo Fisher Scientific
T1 sequence (Q9BTU6 whole entry): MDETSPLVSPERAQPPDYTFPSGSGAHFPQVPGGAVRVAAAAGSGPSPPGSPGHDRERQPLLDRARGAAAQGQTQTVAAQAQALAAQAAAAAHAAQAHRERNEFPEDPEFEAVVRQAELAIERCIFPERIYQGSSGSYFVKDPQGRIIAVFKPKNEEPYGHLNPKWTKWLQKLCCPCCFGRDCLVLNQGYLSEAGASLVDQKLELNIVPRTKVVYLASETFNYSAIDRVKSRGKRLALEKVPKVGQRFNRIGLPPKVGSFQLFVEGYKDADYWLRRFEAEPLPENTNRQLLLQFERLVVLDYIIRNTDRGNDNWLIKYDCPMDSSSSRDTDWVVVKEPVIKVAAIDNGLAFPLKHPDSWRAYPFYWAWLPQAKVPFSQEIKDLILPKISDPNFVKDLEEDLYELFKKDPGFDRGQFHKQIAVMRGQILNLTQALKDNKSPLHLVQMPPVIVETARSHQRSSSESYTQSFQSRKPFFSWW
The note with it: for inhibition at 1 µM: 1000nM. Summed up:
(§1)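 Percent inhibition of each kinase by the test compound, given at either 1 µM or 10 µM, came from a contracted panel run by ZLyte or Adapta protocol.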

Another assay addresses T2, PIP5K1B (Homo sapiens, UniProt O14986).
T2 construct: purchased Thermo Fisher Scientific
The note with it: for inhibition at 1 µM: 1000nM. Summed up:
as §1

The next assay deals with T3, PIP5K1A (Homo sapiens, UniProt Q99755).
T3 construct: purchased Thermo Fisher Scientific
T3 sequence (Q99755 whole entry): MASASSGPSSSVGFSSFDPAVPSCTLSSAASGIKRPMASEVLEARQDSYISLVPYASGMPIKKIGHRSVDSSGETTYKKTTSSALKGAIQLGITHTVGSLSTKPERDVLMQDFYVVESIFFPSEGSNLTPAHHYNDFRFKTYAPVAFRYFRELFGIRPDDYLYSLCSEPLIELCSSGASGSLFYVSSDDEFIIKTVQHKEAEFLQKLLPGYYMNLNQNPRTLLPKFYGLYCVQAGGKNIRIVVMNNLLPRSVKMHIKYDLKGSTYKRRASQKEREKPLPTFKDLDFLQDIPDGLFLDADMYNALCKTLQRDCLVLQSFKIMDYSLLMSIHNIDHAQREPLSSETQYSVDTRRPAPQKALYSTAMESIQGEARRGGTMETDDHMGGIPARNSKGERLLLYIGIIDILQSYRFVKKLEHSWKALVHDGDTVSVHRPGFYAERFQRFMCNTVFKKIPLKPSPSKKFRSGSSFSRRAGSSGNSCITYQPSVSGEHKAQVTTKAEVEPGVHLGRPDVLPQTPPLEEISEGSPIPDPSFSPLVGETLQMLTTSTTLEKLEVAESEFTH
Particulars: for inhibition at 1 µM: 1000nM. An outline of the steps: as §1

In the next assay the target is T4, PIK3C2G (PI3K-C2 gamma) (Homo sapiens, UniProt O75747).
T4 construct: purchased Thermo Fisher Scientific
T4 sequence (O75747 1-1486): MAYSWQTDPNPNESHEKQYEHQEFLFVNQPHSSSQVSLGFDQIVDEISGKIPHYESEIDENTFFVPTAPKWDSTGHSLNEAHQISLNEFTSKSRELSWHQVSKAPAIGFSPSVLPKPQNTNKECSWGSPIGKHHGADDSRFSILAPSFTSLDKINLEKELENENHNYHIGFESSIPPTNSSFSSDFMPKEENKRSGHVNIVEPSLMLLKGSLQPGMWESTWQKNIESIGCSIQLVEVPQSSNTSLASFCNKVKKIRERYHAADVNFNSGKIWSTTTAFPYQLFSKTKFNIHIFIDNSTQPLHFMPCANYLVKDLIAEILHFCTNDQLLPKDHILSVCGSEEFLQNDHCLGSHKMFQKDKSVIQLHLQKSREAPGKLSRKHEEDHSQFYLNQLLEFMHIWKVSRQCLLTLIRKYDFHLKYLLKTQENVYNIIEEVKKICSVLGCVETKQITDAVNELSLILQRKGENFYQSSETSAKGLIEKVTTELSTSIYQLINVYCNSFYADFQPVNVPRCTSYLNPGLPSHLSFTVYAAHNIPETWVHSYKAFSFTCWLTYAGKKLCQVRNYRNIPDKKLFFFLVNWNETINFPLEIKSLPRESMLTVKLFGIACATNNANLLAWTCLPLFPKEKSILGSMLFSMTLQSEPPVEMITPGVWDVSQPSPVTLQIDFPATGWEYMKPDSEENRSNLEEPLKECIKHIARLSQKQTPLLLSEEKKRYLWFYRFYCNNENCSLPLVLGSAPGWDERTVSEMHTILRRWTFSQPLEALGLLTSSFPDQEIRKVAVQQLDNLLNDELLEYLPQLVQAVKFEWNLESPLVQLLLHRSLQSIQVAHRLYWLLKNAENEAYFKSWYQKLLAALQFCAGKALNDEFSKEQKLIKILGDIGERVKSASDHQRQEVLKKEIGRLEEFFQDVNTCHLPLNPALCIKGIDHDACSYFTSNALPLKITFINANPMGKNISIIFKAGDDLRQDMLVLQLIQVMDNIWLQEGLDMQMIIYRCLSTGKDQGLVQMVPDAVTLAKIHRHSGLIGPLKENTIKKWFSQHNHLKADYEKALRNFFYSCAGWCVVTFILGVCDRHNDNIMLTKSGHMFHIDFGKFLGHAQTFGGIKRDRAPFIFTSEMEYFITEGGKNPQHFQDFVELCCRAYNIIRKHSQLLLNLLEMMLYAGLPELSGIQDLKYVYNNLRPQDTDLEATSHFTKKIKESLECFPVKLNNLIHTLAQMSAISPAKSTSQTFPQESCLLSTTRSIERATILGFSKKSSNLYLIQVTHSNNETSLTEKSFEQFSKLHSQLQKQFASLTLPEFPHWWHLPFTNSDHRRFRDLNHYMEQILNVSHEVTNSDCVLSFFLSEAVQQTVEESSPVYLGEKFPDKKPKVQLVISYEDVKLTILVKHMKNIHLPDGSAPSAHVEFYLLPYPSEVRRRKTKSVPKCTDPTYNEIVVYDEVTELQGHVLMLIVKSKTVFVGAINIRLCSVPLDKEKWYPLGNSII
Particulars: for inhibition at 1 µM: 1000nM; for IC50: in vitro kinase panel, criterion of at most 2000 nM. An outline of the steps:
(§2)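 In vitro, kinase panel; ZLyte or Adapta SOP; single-concentration testing (1 or 10 µM); output = % inhibition, plus IC50 in panel.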

Assay [1] deals with T5, PIK3CA/PIK3R3 (p11 0 alpha/p55 gamma) (Homo sapiens, UniProt P42336).
T5 construct: purchased Thermo Fisher Scientific
The note with it: for inhibition at 1 µM: 1000nM. An outline of the steps:
as §1

For a further assay, the target named is T6, LRRK2 (Homo sapiens, UniProt Q5S007).
T6 construct: purchased Thermo Fisher Scientific
T6 sequence (Q5S007 970-2527 limits assumed): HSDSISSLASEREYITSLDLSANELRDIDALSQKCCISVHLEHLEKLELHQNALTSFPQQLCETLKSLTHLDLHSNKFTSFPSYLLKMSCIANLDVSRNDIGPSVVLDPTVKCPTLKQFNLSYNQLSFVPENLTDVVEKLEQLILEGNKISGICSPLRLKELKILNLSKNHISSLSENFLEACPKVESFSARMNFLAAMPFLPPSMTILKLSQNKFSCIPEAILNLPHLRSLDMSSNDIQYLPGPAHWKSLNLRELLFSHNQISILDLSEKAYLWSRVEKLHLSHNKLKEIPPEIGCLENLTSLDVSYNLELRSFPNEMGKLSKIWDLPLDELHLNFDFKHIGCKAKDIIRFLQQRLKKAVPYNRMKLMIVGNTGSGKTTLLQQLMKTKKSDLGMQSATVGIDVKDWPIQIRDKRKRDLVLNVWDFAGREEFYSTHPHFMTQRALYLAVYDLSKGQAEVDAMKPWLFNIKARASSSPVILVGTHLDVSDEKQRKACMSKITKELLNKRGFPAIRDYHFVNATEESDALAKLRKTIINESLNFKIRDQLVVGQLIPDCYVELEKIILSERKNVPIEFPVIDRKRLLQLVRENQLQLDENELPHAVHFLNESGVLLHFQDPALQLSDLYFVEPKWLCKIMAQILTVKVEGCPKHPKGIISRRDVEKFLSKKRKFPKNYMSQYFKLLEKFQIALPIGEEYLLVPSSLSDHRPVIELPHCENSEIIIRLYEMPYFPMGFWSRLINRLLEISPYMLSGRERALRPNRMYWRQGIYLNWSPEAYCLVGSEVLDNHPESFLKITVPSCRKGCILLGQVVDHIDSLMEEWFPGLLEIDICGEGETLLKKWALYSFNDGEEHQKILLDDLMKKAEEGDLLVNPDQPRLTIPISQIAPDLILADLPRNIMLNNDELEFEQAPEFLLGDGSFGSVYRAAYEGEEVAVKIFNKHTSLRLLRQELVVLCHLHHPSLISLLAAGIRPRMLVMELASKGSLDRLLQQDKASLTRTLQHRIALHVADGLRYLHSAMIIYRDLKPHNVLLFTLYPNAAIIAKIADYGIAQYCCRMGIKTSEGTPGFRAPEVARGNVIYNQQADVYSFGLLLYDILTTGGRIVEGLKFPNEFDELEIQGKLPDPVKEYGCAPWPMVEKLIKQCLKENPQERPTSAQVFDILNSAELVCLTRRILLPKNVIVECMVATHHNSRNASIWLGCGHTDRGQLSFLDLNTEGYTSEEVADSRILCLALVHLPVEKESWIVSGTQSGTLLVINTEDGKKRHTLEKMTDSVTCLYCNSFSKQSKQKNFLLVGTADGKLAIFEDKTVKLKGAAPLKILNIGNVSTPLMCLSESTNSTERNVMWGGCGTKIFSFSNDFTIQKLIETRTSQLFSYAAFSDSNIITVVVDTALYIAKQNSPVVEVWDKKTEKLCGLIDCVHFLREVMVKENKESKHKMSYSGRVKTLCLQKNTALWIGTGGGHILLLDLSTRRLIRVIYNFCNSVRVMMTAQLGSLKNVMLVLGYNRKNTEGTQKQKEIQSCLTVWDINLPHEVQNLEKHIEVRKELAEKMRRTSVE
Particulars: for inhibition at 1 µM: 1000nM. Summed up:
as §1

Another assay addresses T7, BLK (Homo sapiens, UniProt P51451).
T7 construct: purchased Thermo Fisher Scientific
The note with it: for inhibition at 1 µM: 1000nM. An outline of the steps:
as §1

For the next assay, the target named is T8, DNA-PK (Homo sapiens, UniProt P78527).
T8 construct: purchased Thermo Fisher Scientific
Particulars: for inhibition at 1 µM: 1000nM. Summed up:
as §2

For the next assay, the target named is T9, MINK1 (Homo sapiens, UniProt Q8N4C8).
T9 construct: purchased Thermo Fisher Scientific
T9 sequence (Q8N4C8 whole entry): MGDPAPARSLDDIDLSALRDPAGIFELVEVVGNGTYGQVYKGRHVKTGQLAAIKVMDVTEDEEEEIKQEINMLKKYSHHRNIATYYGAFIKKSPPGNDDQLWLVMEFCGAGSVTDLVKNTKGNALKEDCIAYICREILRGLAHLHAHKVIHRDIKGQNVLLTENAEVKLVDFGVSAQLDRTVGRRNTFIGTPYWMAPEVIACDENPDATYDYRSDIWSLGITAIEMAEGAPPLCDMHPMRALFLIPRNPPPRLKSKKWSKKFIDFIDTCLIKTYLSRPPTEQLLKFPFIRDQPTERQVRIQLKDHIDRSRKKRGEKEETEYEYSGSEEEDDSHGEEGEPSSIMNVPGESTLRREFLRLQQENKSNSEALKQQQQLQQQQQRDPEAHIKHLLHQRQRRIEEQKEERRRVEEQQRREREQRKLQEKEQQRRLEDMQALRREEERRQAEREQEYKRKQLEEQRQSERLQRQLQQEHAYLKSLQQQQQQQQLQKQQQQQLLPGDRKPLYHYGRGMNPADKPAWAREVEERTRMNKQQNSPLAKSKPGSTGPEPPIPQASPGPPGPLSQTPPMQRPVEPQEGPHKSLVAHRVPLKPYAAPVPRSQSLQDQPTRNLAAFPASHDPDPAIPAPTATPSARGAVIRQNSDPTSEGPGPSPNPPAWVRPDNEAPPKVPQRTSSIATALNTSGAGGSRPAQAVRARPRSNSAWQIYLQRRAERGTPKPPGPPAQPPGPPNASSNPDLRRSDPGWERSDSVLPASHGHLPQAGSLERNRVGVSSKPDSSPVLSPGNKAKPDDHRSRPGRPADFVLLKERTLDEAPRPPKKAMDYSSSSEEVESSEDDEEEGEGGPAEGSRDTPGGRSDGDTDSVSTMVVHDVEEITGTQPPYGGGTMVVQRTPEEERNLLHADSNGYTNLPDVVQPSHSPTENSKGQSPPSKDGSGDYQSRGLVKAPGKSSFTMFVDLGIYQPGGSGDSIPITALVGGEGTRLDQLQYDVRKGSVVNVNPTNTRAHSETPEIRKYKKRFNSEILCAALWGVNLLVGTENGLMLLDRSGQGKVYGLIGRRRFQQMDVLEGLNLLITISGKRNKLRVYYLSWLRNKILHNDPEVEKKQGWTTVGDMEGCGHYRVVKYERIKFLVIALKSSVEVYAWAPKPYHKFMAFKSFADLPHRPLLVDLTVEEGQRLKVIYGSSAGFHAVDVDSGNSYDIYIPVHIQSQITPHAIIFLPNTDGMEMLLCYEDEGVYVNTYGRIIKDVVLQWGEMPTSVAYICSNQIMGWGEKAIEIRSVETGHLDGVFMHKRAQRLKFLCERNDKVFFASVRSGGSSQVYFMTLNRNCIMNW
The note with it: for inhibition at 1 µM: 1000nM. An outline of the steps: as §1

Setting [2] is: PI4K2A (PI4K2 alpha), compound at 10µM, read-out: % of Inhibition.
Where [3] appears, read: PIP5K1B, compound at 10µM, read-out: % of Inhibition.
Where [4] appears, read: PIP5K1A, compound at 10µM, read-out: % of Inhibition.
[5] abbreviates: PIK3C2G (PI3K-C2 gamma), compound at 10µM, read-out: % of Inhibition.
[6] abbreviates: PIK3CA/PIK3R3, compound at 10µM, read-out: % of Inhibition.
[7] abbreviates: LRRK2, compound at 10µM, read-out: % of Inhibition.
Where [8] appears, read: BLK, compound at 10µM, read-out: % of Inhibition.
[9] abbreviates: DNA-PK, compound at 10µM, read-out: % of Inhibition.
Where [10] appears, read: MINK1, compound at 10µM, read-out: % of Inhibition.
Setting [11] is: read-out: Percentage of inhibition.
Where [12] appears, read: 10000nM, read-out: Percentage of inhibition.

T7 sequence (P51451 whole entry): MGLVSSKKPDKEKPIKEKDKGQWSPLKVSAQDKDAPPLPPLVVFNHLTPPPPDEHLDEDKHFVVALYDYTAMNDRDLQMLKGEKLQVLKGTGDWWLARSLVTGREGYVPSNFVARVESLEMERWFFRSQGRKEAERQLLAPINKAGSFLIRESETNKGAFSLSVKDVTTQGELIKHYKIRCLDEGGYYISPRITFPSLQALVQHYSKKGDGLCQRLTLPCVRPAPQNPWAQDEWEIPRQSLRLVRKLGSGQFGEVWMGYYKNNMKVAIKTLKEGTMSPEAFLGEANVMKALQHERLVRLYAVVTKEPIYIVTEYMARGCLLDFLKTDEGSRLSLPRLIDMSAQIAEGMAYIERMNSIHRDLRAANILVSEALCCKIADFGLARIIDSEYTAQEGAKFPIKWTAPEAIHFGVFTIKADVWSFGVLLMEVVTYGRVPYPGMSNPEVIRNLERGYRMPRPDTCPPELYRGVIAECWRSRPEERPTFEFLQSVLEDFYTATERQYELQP
T2 sequence (O14986 whole entry): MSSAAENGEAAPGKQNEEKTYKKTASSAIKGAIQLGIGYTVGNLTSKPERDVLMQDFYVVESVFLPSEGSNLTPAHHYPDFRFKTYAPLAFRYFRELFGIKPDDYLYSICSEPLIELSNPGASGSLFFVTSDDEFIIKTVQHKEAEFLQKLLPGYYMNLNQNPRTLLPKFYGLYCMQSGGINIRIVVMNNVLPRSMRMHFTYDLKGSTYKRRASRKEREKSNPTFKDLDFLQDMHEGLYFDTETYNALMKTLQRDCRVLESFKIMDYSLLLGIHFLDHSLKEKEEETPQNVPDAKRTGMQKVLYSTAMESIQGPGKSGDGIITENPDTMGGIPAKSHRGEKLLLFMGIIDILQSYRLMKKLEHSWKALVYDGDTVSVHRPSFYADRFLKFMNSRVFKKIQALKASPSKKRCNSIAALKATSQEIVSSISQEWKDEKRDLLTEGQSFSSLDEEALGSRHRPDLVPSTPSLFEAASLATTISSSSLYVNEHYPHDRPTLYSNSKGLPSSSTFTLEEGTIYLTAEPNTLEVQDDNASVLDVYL

In general, inhibition refers to the change of the read-out against control, counted positive when it falls. Regarding `O=c1c2cnccc2c2nccc3c4cc(O)ccc4n1c32` [MW01-E18, 5-hydroxy-1,11,16-triazapentacyclo[10.7.1.0^2,^7.0^8,^20.0^13,^18]icosa-2(7),3,5,8(20),9,11,13(18),14,16-nonaen-19-one], the inhibition at 10 µM at PI4K2A (PI4K2 alpha) (setting [2]) is 30%; at PIP5K1B (setting [3]), -3%; on PIP5K1A (setting [4]), 28%; on PIK3C2G (PI3K-C2 gamma) (setting [5]), 81%; in assay [1] (setting [6]) it was 94%; on LRRK2 (setting [7]), 75%. Also, the inhibition at 10 µM amounted to 23% at BLK (setting [8]), 94% at DNA-PK (setting [9]) and 85% on MINK1 (setting [10]).
Regarding `COc1ccc2nc3c(cc2c1)c(N)nn3C(=O)c1cccc(N(C)C)c1` [MW05-E2, 1-[3-(dimethylamino)benzoyl]-6-methoxy-1H-pyrazolo[3,4-b]quinolin-3-amine], the inhibition at 10 µM on PI4K2A (PI4K2 alpha) (setting [2]) was -4%; at PIP5K1B (setting [3]) it was -12%; on PIP5K1A (setting [4]), -9%; on PIK3C2G (PI3K-C2 gamma) (setting [5]) it was 27%; in assay [1] (setting [6]), 8%; at LRRK2 (setting [7]), 8%. The inhibition at 10 µM at BLK (setting [8]) was determined as 10%; on DNA-PK (setting [9]), 16%; at MINK1 (setting [10]), 29%.
For orientation: IC50 means the concentration that inhibits the measured activity by half. Turning to `COc1ccc2c(c1OC)c(=O)n1c3ccc(O)cc3c3ccnc2c31` [MW01, 5-Hydroxy-10,11-dimethoxy-9H-benzo[c]indolo[3,2,1-ij][1,5]naphthyridin-9-one], the inhibition at 1 µM on PI4K2A (PI4K2 alpha) (setting [11]) worked out at 7%; on PIP5K1B (setting [11]), 4%; on PIP5K1A (setting [11]), 25%; on PIK3C2G (PI3K-C2 gamma) (setting [11]), 92%; in assay [1] (setting [11]), 92%; on LRRK2 (setting [11]), 83%. The inhibition at 1 µM on BLK (setting [11]) came out at 8%; at DNA-PK (setting [11]) it was 86%; on MINK1 (setting [11]), 60%. In addition, the inhibition at 10 µM at PI4K2A (PI4K2 alpha) (setting [12]) is 25%; at PIP5K1B (setting [12]), 21%; on PIP5K1A (setting [12]), 43%; on PIK3C2G (PI3K-C2 gamma) (setting [12]), 94%; in [1] (setting [12]), 96%; at LRRK2 (setting [12]), 87%. Further, the inhibition at 10 µM was 26% at BLK (setting [12]), 96% on DNA-PK (setting [12]) and 73% at MINK1 (setting [12]). Also, at PIK3C2G (PI3K-C2 gamma), the half-inhibitory concentration (IC50) was not above 2000 nM.
On to `COc1ccc2cc3c(N)nn(C(=O)c4cccc(N(C)C)c4)c3nc2c1` [MW05, (3-Amino-7-methoxypyrazolo[3,4-b]quinolin-1-yl)-[3-(dimethylamino)phenyl]methanone], for which the inhibition at 1 µM at PI4K2A (PI4K2 alpha) (setting [11]) was -7%; on PIP5K1B (setting [11]), -13%; at PIP5K1A (setting [11]) it was -6%; at PIK3C2G (PI3K-C2 gamma) (setting [11]), 56%; in assay [1] (setting [11]) it was 16%; at LRRK2 (setting [11]), -3%. For the same compound, the inhibition at 1 µM on BLK (setting [11]) is 0%; at DNA-PK (setting [11]), 30%; at MINK1 (setting [11]), 20%. Further, the inhibition at 10 µM on PI4K2A (PI4K2 alpha) (setting [12]) is -1%; on PIP5K1B (setting [12]) it was 7%; at PIP5K1A (setting [12]), 5%; on PIK3C2G (PI3K-C2 gamma) (setting [12]), 87%; in [1] (setting [12]) it was 63%; at LRRK2 (setting [12]), 5%. The inhibition at 10 µM was -1% on BLK (setting [12]), 61% on DNA-PK (setting [12]) and 9% at MINK1 (setting [12]). For the same compound, the concentration for half-maximal inhibition (IC50) on PIK3C2G (PI3K-C2 gamma) is not above 2000 nM; on DNA-PK (in vitro kinase panel, sub-2000 nM criterion) it was not below 2000 nM.
For the compound `O=c1c2cc(O)ccc2c2nccc3c4cc(O)ccc4n1c32` [MW01-E10, 5,16-dihydroxy-1,11-diazapentacyclo[10.7.1.0^2,^7.0^8,^20.0^13,^18]icosa-2(7),3,5,8(20),9,11,13(18),14,16-nonaen-19-one], the inhibition at 10 µM at PI4K2A (PI4K2 alpha) (setting [2]) worked out at 13%; on PIP5K1B (setting [3]), 5%; at PIP5K1A (setting [4]), 5%; at PIK3C2G (PI3K-C2 gamma) (setting [5]), 81%; in assay [1] (setting [6]), 90%; on LRRK2 (setting [7]) it was 86%. Also, the inhibition at 10 µM at BLK (setting [8]) was 42%; at DNA-PK (setting [9]), 62%; at MINK1 (setting [10]), 92%.
As for `COc1ccc2c(c1)c1ccnc3c4nc(OC)ccc4c(=O)n2c13` [MW01-E6, 5,15-dimethoxy-1,11,14-triazapentacyclo[10.7.1,0^2,7.0^8,^20.0^13,^18]icosa-2(7),3,5,8(20),9,11,13(18),14,16-nonaen-19-one], the inhibition at 10 µM at PI4K2A (PI4K2 alpha) (setting [2]) came to 22%; at PIP5K1B (setting [3]) it was 14%; at PIP5K1A (setting [4]), 20%; on PIK3C2G (PI3K-C2 gamma) (setting [5]) it was 35%; in [1] (setting [6]) it was 10%; at LRRK2 (setting [7]) it was 64%. Besides, the inhibition at 10 µM on BLK (setting [8]) stood at 23%; on DNA-PK (setting [9]) it was 9%; on MINK1 (setting [10]), 57%.
Turning to `COc1ccc2c(c1)c1ccnc3c4ccnc(OC)c4c(=O)n2c13` [MW01-E14, 5,17-dimethoxy-1,11,16-triazapentacyclo[10.7.1.0^2,^7.0^8,^20.0^13,^18]icosa-2(7),3,5,8(20),9,11,13(18),14,16-nonaen-19-one], the inhibition at 10 µM was 35% on PI4K2A (PI4K2 alpha) (setting [2]); 26% on PIP5K1B (setting [3]); 11% at PIP5K1A (setting [4]); 50% at PIK3C2G (PI3K-C2 gamma) (setting [5]); 59% in assay [1] (setting [6]); -4% on LRRK2 (setting [7]). Further, the inhibition at 10 µM at BLK (setting [8]) stood at 9%; at DNA-PK (setting [9]) it was 43%; on MINK1 (setting [10]) it was 12%.
